# From paper PMC9481570, “A small molecule antagonist of SMN disrupts the interaction between SMN and RNAP II” (Nature Communications, 2022)
# Read-outs that look alike come from different tables or passages of the source.
# Experiments:
# [1] = molecular target: T1, SMN Tudor domain (Homo sapiens, UniProt Q16637); assay: ITC binding to Tudor domain of SMN
# T1 construct: SMN (aa 82–147); His (N, cleaved yes); made in house; host or cells: E. coli BL21 (DE3) Codon plus RIL
# Description: (§1) The coding DNA fragments of following Tudor domains were cloned into pET28-MHL vector: SMN (aa 82–147), UHRF1 (aa 126–285), SMNDC1 (aa 53–130), TDRD3 (aa 554–611), SND1 (aa 650–910), TDRD2 (aa 327–420), FXR1 (aa 2–132), PHF1 (aa 28–87), SGF29 (aa 115–293), JMJD2A (aa 897–1101), 53BP1 (aa 1483–1606), SETDB1 (aa 190–410), LBR (aa 1–67), ZGPAT (aa 120–271). The coding regions of chromodomain of CBX7 (aa 8–62), PWWP domain of DNMT3A (aa 275–417), WD40 repeats of WDR5 (aa 24–334) and CW domain of ZCWPW2 (aa 21–78) were also subcloned into pET28-MHL vector to generate N-terminally His-tagged fusion protein. The MBT repeats of L3MBTL1 (aa 200–522) and L3MBTL2 (aa 170–625) were subcloned into pET28GST-LIC vector to generate N-terminally GST-His-tagged fusion protein. All the plasmids were generated by ligase independent cloning (Vazyme Biotech, C112 or ABclonal Technology, RK21020). […] The proteins were further purified by Superdex75 or Superdex200 gel-filtration column (GE Healthcare) in a buffer containing 20 mM Tris-HCl, pH 7.5, 150 mM NaCl and 1 mM DTT. For crystallization experiments, purified proteins were concentrated to 18 mg/mL for SMN, 23 mg/mL for UHRF1 and 10 mg/mL for TDRD3 in the gel-filtration buffer. All the mutations were introduced with the QuikChange II XL site-directed mutagenesis kit (Stratagene, 200522) and confirmed by DNA sequencing. Mutant proteins were also expressed in E. coli BL21 (DE3) Codon plus RIL and purified using the same procedures described above. The molecular weight of all protein samples was measured by mass spectrometry.
# (§2) For the ITC measurement, the concentrated proteins were diluted into 20 mM Tris-HCl, pH 7.5, 150 mM NaCl (ITC buffer); the lyophilized compounds were dissolved in the same buffer, and the pH value was adjusted by adding 2 M NaOH or 2 M HCl. The compounds that could not be dissolved in the ITC buffer were dissolved in DMSO with the accessible highest concentration. Compound concentrations were calculated from the mass and the volume of the solvent. For the ITC assay with compound dissolved in DMSO, the protein was diluted by ITC buffer containing same final concentration of DMSO. All measurements were performed in duplicate at 25 °C, using a VP-ITC (MicroCal, Inc.), an iTC-200 (MicroCal, Inc.), or a Nano-ITC (TA, Inc.) microcalorimeter. The protein with a concentration of 50–100 μM was placed in the cell chamber, and the compounds with a concentration of 0.5–2 mM in syringe was injected in 25, 20, or 20 successive injections with a spacing of 180, 150, or 120 s for VP-ITC, iTC-200, or Nano-ITC, respectively, as previously described[30]–[32]. iTC-200 or Nano-ITC data were consistent with those from the VP-ITC instrument, based on ITC results of SMN-compound 1 detected by using all the instruments. Control experiments were performed under identical conditions to determine the heat signals that arise from injection of the compounds into the buffer. Data were fitted using the single-site binding model within the Origin software 7.0 package (MicroCal, Inc.) or the independent model within the Nano-Analyze software package (TA, Inc.).
# [2] = molecular target: T2, UHRF1 tandem Tudor domain (TTD) (Homo sapiens, UniProt Q96T88); assay: ITC binding to tandem Tudor domain of UHRF1
# T2 construct: UHRF1 (aa 126–285); His (N, cleaved yes); made in house; host or cells: E. coli BL21 (DE3) Codon plus RIL
# T2 sequence (Q96T88 126-285): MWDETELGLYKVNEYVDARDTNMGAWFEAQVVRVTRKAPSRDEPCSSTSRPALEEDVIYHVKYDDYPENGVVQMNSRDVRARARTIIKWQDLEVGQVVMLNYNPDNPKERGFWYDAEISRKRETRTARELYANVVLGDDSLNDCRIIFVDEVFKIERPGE
# Description: as §1, §2
# [3] = molecular target: T3, SMN (Homo sapiens, UniProt Q16637); assay: Biotin-Cmpd 1 pulldown from U2OS cell lysates and western blotting, SMN; assay type: binding; details: U2OS cell lysate, 20 μM biotin-Cmpd 1, overnight 4 °C (Fig. 2c, Supplementary Fig. 6)
# T3 construct: endogenous in cells; host or cells: U2OS
# Experimental: (§3) U2OS cells were lysed in RIPA buffer (140 mM NaCl, 10 mM Tris-HCl, pH 7.6, 1% Triton, 0.1% sodium deoxycholate, 1 mM EDTA) containing protease inhibitors (Roche, 05892791001). The cell lysate was incubated with 20 μM biotin-Cmpd 1 overnight at 4 °C, then 30 μL streptavidin beads (Thermo Fisher, 20353) was added and incubated at 4 °C for 1 h. The beads were then washed with RIPA buffer for 3 times, 10 min/time and loading buffer was added and boiled for 5 min for elution. The eluted samples were separated by SDS-PAGE for western blotting (SMN monoclonal antibody, BD Transduction Laboratories, 610646, clone No. 8, dilution of 1:1000; TDRD3 rabbit monoclonal antibody, Cell signaling, 5492, clone No. 5492, dilution of 1:1000; SND1 polyclonal antibody, Bethyl, A302-883A, dilution of 1:2000; RFP polyclonal antibody, Abcam, ab62341, dilution of 1:1000; GFP monoclonal antibody, Santa Cruz Biotechnology, sc-9996, dilution of 1:1000; Streptavidin-Horseradish Peroxidase (HRP), Invitrogen, SA10001, dilution of 1:5000) as previously described[52],[53]. For the competition analysis, 200 μM biotin-free compound 1 or compound 15 was added at the same time when the biotin-Cmpd 1 was incubated with the cell lysates.
# [4] = molecular target: T4, SND1 (Homo sapiens, UniProt Q7KZF4); assay: Biotin-Cmpd 1 pulldown from U2OS cell lysates and western blotting, SND1; assay type: binding; details: U2OS cell lysate, 20 μM biotin-Cmpd 1 (Fig. 2c, Supplementary Fig. 6)
# T4 construct: endogenous in cells; host or cells: U2OS
# T4 sequence (Q7KZF4 whole entry): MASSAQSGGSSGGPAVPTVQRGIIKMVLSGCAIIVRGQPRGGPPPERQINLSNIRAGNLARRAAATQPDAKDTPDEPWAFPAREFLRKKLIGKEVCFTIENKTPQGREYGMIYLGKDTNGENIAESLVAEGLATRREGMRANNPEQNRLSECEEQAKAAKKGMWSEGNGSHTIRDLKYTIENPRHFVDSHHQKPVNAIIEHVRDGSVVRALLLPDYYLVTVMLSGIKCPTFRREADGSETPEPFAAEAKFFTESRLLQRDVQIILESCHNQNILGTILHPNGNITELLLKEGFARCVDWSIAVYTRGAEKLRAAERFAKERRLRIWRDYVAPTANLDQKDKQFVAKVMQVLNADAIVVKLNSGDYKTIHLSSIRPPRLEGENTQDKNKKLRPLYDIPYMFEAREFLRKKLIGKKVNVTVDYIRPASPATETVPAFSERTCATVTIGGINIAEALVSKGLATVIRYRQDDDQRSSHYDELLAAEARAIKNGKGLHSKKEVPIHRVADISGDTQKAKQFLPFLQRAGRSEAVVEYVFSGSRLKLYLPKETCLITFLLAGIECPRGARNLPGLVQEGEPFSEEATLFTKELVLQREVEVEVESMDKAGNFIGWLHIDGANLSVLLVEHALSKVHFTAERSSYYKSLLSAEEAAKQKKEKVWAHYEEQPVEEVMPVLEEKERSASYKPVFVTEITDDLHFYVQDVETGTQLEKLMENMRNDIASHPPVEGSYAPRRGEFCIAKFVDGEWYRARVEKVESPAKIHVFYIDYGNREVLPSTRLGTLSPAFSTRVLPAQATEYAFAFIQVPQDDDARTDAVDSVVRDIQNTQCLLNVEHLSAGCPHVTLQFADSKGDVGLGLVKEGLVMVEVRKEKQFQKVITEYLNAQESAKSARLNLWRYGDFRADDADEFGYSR
# Experimental: as §3
# [5] = system: SMN cage mutants; assay: Biotin-Cmpd 1 pulldown from U2OS cell lysates, SMN cage mutants; assay type: binding, human; details: U2OS cell lysate, 20 μM biotin-Cmpd 1 (Fig. 2d)
# Experimental: as §3
# [6] = molecular target: TDRD3 (Homo sapiens, UniProt Q9H7E2); assay: Biotin-Cmpd 1 pulldown from U2OS cell lysates and western blotting, TDRD3; assay type: binding; parameters: endogenous in cells; host or cells: U2OS; details: U2OS cell lysate, 20 μM biotin-Cmpd 1 (Fig. 2c, Supplementary Fig. 6)
# TDRD3, sequence (Q9H7E2 whole entry): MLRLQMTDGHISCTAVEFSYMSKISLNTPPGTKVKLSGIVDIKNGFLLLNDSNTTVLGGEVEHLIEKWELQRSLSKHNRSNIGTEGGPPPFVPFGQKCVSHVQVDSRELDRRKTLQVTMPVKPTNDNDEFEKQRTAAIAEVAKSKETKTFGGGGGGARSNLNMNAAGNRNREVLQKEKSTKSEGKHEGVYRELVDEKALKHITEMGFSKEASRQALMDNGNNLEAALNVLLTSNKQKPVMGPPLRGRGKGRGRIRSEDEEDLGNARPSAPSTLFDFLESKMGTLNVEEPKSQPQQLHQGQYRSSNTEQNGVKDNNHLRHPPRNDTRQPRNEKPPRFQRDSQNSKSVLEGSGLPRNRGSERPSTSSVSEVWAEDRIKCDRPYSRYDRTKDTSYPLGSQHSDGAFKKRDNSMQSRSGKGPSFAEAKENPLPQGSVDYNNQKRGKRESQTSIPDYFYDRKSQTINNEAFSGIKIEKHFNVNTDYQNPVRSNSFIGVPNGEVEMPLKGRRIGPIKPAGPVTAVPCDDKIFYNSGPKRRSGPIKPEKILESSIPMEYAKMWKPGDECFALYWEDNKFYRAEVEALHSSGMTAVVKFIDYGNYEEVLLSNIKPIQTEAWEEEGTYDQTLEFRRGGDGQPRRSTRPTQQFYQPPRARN
# Experimental: as §3
# [7] = molecular target: R1810me2s-POLR2A (Homo sapiens) (UniProt P24928); details: cited from earlier work
# [8] = ITC, Tudor domain of SMN wild type, 25 °C
# [9] = Supplementary Fig. 12, read-out: Kd, binding affinity (determined by ITC) of different compounds to SMN
# [10] = ITC, Tudor domain of SMN wild type, 25 °C, read-out: Kd (SMN)
"Kd (SMN) [1, 8]","Kd [1, 9] [µM]",Kd (UHRF1) [2],Compound,further results
No binding,> 244,No binding,"CN1CC[C@H](N)c2ccccc21 [Compound 15, (S)-1-methyl-1,2,3,4-tetrahydroquinolin-4-aminium]",
No binding,> 244,No binding,"CN1CC[C@H](CN)c2ccccc21 [Compound 16, (S)-(1-methyl-1,2,3,4-tetrahydroquinolin-4-yl)methanaminium]",
No binding,> 244,No binding,"Nc1cccc2ccsc12 [Compound 12, benzo[b]thiophen-7-amine]",
No binding,> 244,No binding,"CCN(CC)c1ccc(C(=N)N)cc1 [Compound 18, 4-(diethylamino)benzimidamide]",
No binding,> 244,No binding,"C[C@H]1CC[C@@H](N)c2ccccc21 [Compound 14, (1R,4S)-4-methyl-1,2,3,4-tetrahydronaphthalen-1-aminium]",
No binding,> 244,No binding,"Cn1ccc(=N)cc1 [Compound 20, 1-methylpyridin-4(1H)-imine]",
,,,N=c1c2c(n(CC(=O)NCCOCCOCCOCCNC(=O)CCCC[C@@H]3SC[C@@H]4NC(=O)N[C@@H]43)c3c1CCC3)CCC2 [biotin-Cmpd 1],"Kd ([1]; Supplementary Figs. 2, 4 and 11a (VP-ITC), read-out: Kd, ITC binding curve, Tudor domain of SMN): 87 ± 12 µM; pulldown of SMN from cell lysates [3]: efficiently captured; pulldown of SMN from cell lysates ([3]; listed as Biotin-Cmpd 1): selectively chemiprecipates SMN; pulldown of SND1 from cell lysates [4]: neither TDRD3 nor SND1 could be detected; pulldown of SMN cage mutants from cell lysates [5]: could not efficiently pull down; pulldown of TDRD3 from cell lysates [6]: neither TDRD3 nor SND1 could be detected"
,,Weak binding,"Cc1cc(=N)c2ccccc2n1C [Compound 6, 1,2-dimethylquinolin-4(1H)-imine]","Kd [1, 10]: 12 ± 2 µM"
No binding,> 244,No binding,"C[C@H]1Cc2ccccc2[C@@H]1N [Compound 10, (1R,2S)-2-methyl-2,3-dihydro-1H-inden-1-aminium]",
,,No binding,"CCCCc1c(CCC)c(=N)c2ccccc2n1C [Compound 5, 2-butyl-1-methyl-3-propylquinolin-4(1H)-imine]","Kd [1, 10]: 12 ± 1 µM"
,,No binding,"N=c1c2c(n(Cc3ccc(F)cc3)c3c1CCC3)CCC2 [Compound 4, 4-(4-fluorobenzyl)-2,3,4,5,6,7-hexahydrodicyclopenta[b,e]pyridin-8(1H)-imine]","Kd [1, 10]: 13 ± 1 µM"
No binding,> 244,No binding,"N=C(N)N1CCC(Cc2ccccc2)CC1 [Compound 17, 4-benzylpiperidine-1-carboximidamide]",
,,No binding,"CCOC(=O)Cn1c2c(c(=N)c3c1CCC3)CCC2 [Compound 3, ethyl 2-(8-imino-2,3,5,6,7,8-hexahydrodicyclopenta[b,e]pyridin-4(1H)-yl)acetate]","Kd [1, 10]: 31 ± 2 µM"
No binding,> 244,No binding,"Nc1cccc2ocnc12 [Compound 7, benzo[d]oxazol-4-amine]",
No binding,> 244,No binding,"N=C(N)c1ccc(N)cc1 [Compound 19, 4-aminobenzimidamide]",
,,,SMN Tudor (from UniProt Q16637),Kd [7]: 175 µM
No binding,> 244,No binding,"C[C@H]1CCc2ccccc2[C@@H]1N [Compound 13, (1R,2S)-2-methyl-1,2,3,4-tetrahydronaphthalen-1-aminium]",

Compound,"Kd (SMN) [1, 8]","Kd [1, 9] [µM]",Kd (UHRF1) [2],further results
"NC[C@H]1CCc2ccccc21 [Compound 11, (S)-(2,3-dihydro-1H-inden-1-yl)methanaminium]",No binding,> 244,No binding,
"Nc1cccc2cccnc12 [Compound 8, quinolin-8-amine]",No binding,,No binding,Kd [1]: > 244 µM
"CN[C@@H]1CCc2ccccc21 [Compound 9, (R)-N-methyl-2,3-dihydro-1H-inden-1-aminium]",No binding,> 244,No binding,
